The subject of one series is chymotrypsin. The experiment in a line: Stability against protease cleavage, HPLC. The note with it: 0.001 mg/ml protease, 22° C., FIG. 17A. The series is classed as in vitro ADME. Here is the method: (§1) Stability of the D-PEP, and 3D-PEP, analogs, and of PEG-N-3D-PEP and PEG-C-3D-PEP conjugates against protease cleavage (chymotrypsin and trypsin) was tested and compared to stability of the native peptide having SEQ ID NO: 1. To peptides' stocks of 430 μl in concentration of 450 μM were added 0.001 mg/ml protease (Trypsin or Chymotrypsin) and incubated in room temperature (22° C.). Samples of 40 μl were taken before adding the protease and after every 15 min in the first hour, and after 2 […] and 24 h. To stop the proteolysis samples were added 7 μl of 2% TFA in TDW. The samples were added 60 μl TDW and were analyzed using analytical HPLC.

The next series relates to trypsin. The series is described as follows: Stability against protease cleavage, HPLC. It is filed as in vitro ADME. The note with it: 0.001 mg/ml protease, 450 μM peptide, 22° C.; FIG. 17B. The method, then: as §1
For series [1], the system named is MDA-MB-231 breast cancer spheroids. The experiment in a line: 3D spheroid apoptosis/cytotoxicity, Annexin V-red, IncuCyte. The series is classed as cell-based, human. The note with it: incubated for 36 hours, 10 or 50 μM, FIG. 11. The method, then: (§2) The MDA-MB-231 cells were plated in quadruplicate at 2×10^3 cells per well in a 96 well ULA plate (Corning 7007) and the cells were further cultured for 3 days to form spheroids. Then, the spheroids were treated with the peptides having SEQ ID NO:1 and the apoptosis of spheroids was assayed using Annexin V-red detection marker. Spheroids were imaged at ×10 magnification in an IncuCyte Zoom Live-cell analysis system (Essen Bioscience) at 37° C. with 5% CO2. Spheroid cell images were recorded every two hours and the resulting red colors, reflecting cell apoptosis, were analyzed with the IncuCyte software.)
(§3) Similarly to Example 2, the effect of D-PEP on “tumor like” 3D cancer cell spheroids of prostate cancer cells PC3 and MDA-MB-231, was tested and quantified. Annexin V-red apoptosis marker indicator was used to assess cytotoxicity and the cytotoxicity was calculated as integrated intensity over the surface (RCU×μm^2/Image).

For series [2], the system named is PC3 (prostate cancer) spheroids. The experiment in a line: 3D spheroid cytotoxicity, Annexin V-red, IncuCyte. The series is classed as cell-based. The method, then:
as §2, §3

Series [3] can be described thus: Mice weight in xenograft study. The series is classed as in vivo. The settings on record: 135 μg/Kg IP or IT, days 18-30; all groups. The method, then:
30 female athymic nude (FOXN1NU) mice (5-6 weeks old) were injected subcutaneously (S.C.) with 2.5×10^6 MDA-MB-231 cells overexpressing NAF-1. Two and half weeks (day 18) after S.C. injection, mice weight and tumor size was measured. Mice were divided into three different treatment groups that were administrated 3 serial injections per week, on days 18, 21, 23, 25, 28, and 30. The groups were as follows: Group 1: Intraperitoneal (IP) injection of 135 μg/Kg D-PEP; Group 2: Intratumoral (IT) injection of PBS—control; and Group 3: Intratumoral (IT) injection of 135 μg/Kg D-PEP. On days 18, 21, 23, 25, 28 and 30 after S.C. injection of the tumor cells, tumor size and mice weight was measured in all groups.

The structures appear in SMILES notation. Non-standard residues stand in square brackets, D forms with d. Residues, ends and D or L forms follow the SMILES beside them.

Consider `CC(C)C[C@H](NC(=O)[C@H](C)NC(=O)[C@H](CC(C)C)NC(=O)[C@@H](NC(=O)CNC(=O)[C@H](CC(C)C)NC(=O)[C@@H](N)Cc1ccccc1)C(C)C)C(=O)N[C@@H](CC(C)C)C(=O)NCC(=O)N[C@@H](Cc1ccc(O)cc1)C(=O)N[C@@H](CC(C)C)C(=O)N[C@@H](C)C(=O)N[C@H](C(=O)N[C@@H](CCCNC(=N)N)C(=O)N1CCC[C@H]1C(=O)N[C@@H](Cc1ccccc1)C(=O)N[C@@H](CC(C)C)C(=O)N1CCC[C@H]1C(=O)N[C@@H](CCCCN)C(=O)N[C@@H](CCCCN)C(=O)N[C@@H](CCCCN)C(=O)N[C@@H](CCC(N)=O)C(=O)N[C@@H](CCC(N)=O)C(=O)N[C@@H](CCCCN)C(=O)O)C(C)C` [SEQ ID NO: 1] (H-FLGVLALLGYLAVRPFLPKKKQQK-OH; N-terminus and C-terminus assumed), for which the “time to complete degradation by chymotrypsin” value in the series on chymotrypsin (450 μM peptide) is given as approximately 100 min. In addition, the “time to complete degradation by trypsin” value with trypsin is 400 min.
Regarding `CC(C)C[C@@H](NC(=O)[C@H](N)Cc1ccccc1)C(=O)NCC(=O)N[C@@H](C(=O)N[C@H](CC(C)C)C(=O)N[C@H](C)C(=O)N[C@H](CC(C)C)C(=O)N[C@H](CC(C)C)C(=O)NCC(=O)N[C@H](Cc1ccc(O)cc1)C(=O)N[C@H](CC(C)C)C(=O)N[C@H](C)C(=O)N[C@@H](C(=O)N[C@H](CCCNC(=N)N)C(=O)N1CCC[C@@H]1C(=O)N[C@H](Cc1ccccc1)C(=O)N[C@H](CC(C)C)C(=O)N1CCC[C@@H]1C(=O)N[C@H](CCCCN)C(=O)N[C@H](CCCCN)C(=O)N[C@H](CCCCN)C(=O)N[C@H](CCC(N)=O)C(=O)N[C@H](CCC(N)=O)C(=O)N[C@H](CCCCN)C(=O)O)C(C)C)C(C)C` [D-PEP, flgvlallgylavrpflpkkkqqk] (H-[dF][dL]G[dV][dL][dA][dL][dL]G[dY][dL][dA][dV][dR][dP][dF][dL][dP][dK][dK][dK][dQ][dQ][dK]-OH; N-terminus and C-terminus assumed), the “cytotoxicity (total toxicity integrated intensity)” value in series [1] was “comparable to that seen for PC3 cell”; in series [2] (10 μM, incubation for 8 hours, FIG. 7), “much more moderate”; in series [2] (50 μM, 36 hour, compared to control, FIG. 8), “much more significant cytotoxic effect than 10 μM of D-PEP”; in series [2] (50 μM, incubation for 8 hours, FIG. 7) it was “substantial cytotoxic effect”. Further, the mice weight entry in series [3] is listed as “not significant change in the weight of mice”. Also, the metabolised at 1400 min, 450 μM in the series with chymotrypsin (chymotrypsin (isolated protease), after 1400 min, read-out: peptide degraded by chymotrypsin) is 20%.

For the origin of these results see patent US11208443B2, “NAF-1 derived peptides and uses thereof” (YISSUM RESEARCH DEVELOPMENT COMPANY OF THE HEBREW …, priority 2017, dated 2021).
